Source: paper PMC4592245 (PLoS ONE, 2015)

Key:
[1] = test system: ICR mice; test: Electrocardiogram (EKG) measurements; type: in vivo, mouse;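 also: Non-invasive EKG recorded at several successive time points, with each individual signal then analysed by physiologic waveform analysis software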
Procedure: Non-invasive EKG recordings were made using the ECGenie system (Mouse Specifics) at several subsequent time points. […] Data acquisition was performed using the program LabChart 6 (AD Instruments). Individual EKG signals were then evaluated using e-MOUSE physiologic waveform analysis software (Mouse Specifics) as previously described [31].

[2] = test system: MDA-MB-231-LM3-3 orthotopic breast tumors; test: Therapeutic efficacy in orthotopic TNBC mouse model; type: in vivo, nude mice
Procedure: To establish orthotopic breast tumors, 0.75 × 10^6 MDA-MB-231-LM3-3 cells were injected into one of the second mammary fat pads of nude mice (Charles River Laboratories, female, 6–7 weeks, n = 6/group). Phospho-bufalin was dissolved in PBS for tumor treatment. PBS was injected as the vehicle control. When tumors became palpable, generally 14 days after injection, mice were randomized into two groups. The treatment group was then injected with phospho-bufalin subcutaneously (0.75 mg/kg per dose, 3 doses per week) for 3 weeks while the control group received PBS. Tumor lengths and widths were measured three times per week. Tumor sizes were calculated by: (length × width × width)/2.

[3] = test system: Ki–67; test: Ki-67 immunohistochemistry of tumor tissue; type: in vivo, nude mice; conditions: 0.75 mg/kg 3 times per week
Procedure: The formalin-fixed, paraffin-embedded tissue was dried at 58°C for 1 hour in an oven, and de-paraffinized by soaking slides in xylene, ethanol, and finally distilled water. Antigen was retrieved by steaming slides in a target retrieval solution, 10 mM citrate buffer (pH 6.0), for 30 minutes. Endogenous peroxidases were blocked with a 3% of hydrogen peroxide solution in PBS buffer. The leftover hydrogen peroxide was removed with PBS rinse. […] To stain the SRC–3 antigen, anti-SRC–3 antibody (Mouse source, BD Biosciences Inc. Cat# 611104) was pre-diluted 1:400 in a normal serum blocking solution. To stain the Ki–67 antigen, anti-Ki–67 (Rabbit source, Cell Signaling Technology Inc. Cat#9027) was used in 1:10000 dilution. During the staining procedure, the sections were incubated with HRP-polymer conjugated secondary antibodies (Vector Laboratories, Cat#7401 for rabbit antibody, Cat#MP–2400 for mouse antibody). To visualize the immunostaining, the sections were incubated with a fresh DAB solution (Dako Inc. Cat# K3468) and monitored under a microscope. Once ideal signals were observed, the reaction was stopped by rinsing the slides with water. Nuclear counterstain was also performed by immersing slides in Mayer’s Hematoxylin and a bluing reagent.

[4] = biological target: T1, SRC–3 (Homo sapiens, UniProt Q9Y6Q9); test: Western blotting of SRC-3, dose response in LM3-3 cells; type: cell-based; design: endogenous in cells
[5] = test system: heart muscle; test: H&E staining of heart tissues; conditions: 24 h after drug administration
[6] = Pharmacokinetic study of 3-phospho-bufalin
Procedure: Five quality control (QC) samples at 10 ng/mL, 20 ng/mL, 500 ng/mL, 4000 ng/mL and 8000 ng/mL of plasma were prepared independently of those used for the calibration curves. QC samples were prepared on the day of analysis in the same way as the calibration standards.
Standards, QC samples, and unknown samples were injected into LC-MS/MS for quantitative analysis. The pharmacokinetic parameters of p-Buf were analyzed using WinNonLin. The PK trace was fitted into a non-compartmental extravascular model.

[7] = biological target: T1, SRC–3; test: SRC-3 levels in tumor tissues (Western blotting, IHC); type: in vivo, nude mice; design: from tissue; host or cells: orthotopic MDA-MB-231-LM3-3 xenograft tumours from nude mice; conditions: 0.75 mg/kg 3 times per week
Procedure: Cell lysate was prepared by adding RIPA buffer (containing 10 mM Tris-Cl pH 8.0, 1 mM EDTA, 0.5 mM EGTA, 1% Triton X–100, 0.1% sodium deoxycholate, 0.1% SDS, 140 mM NaCl, and protease inhibitors) to cells kept on ice. After spinning samples at 16,000 rpm for 15 minutes at 4°C, insoluble materials in the collected cell lysate were precipitated and discarded. The total protein concentration was measured using a Bradford protein assay. An equivalent mass of each sample was loaded and electrophoretically separated by 10% SDS-PAGE. Then proteins on PAGE the gel were transferred to a PVDF membrane. Anti-SRC–3 (Cell Signaling Technology Co. Cat# 2126) and anti-actin (Cell Signaling Technology Co. Cat# 8457) were used to probe the membranes.
The formalin-fixed, paraffin-embedded tissue was dried at 58°C for 1 hour in an oven, and de-paraffinized by soaking slides in xylene, ethanol, and finally distilled water. Antigen was retrieved by steaming slides in a target retrieval solution, 10 mM citrate buffer (pH 6.0), for 30 minutes. Endogenous peroxidases were blocked with a 3% of hydrogen peroxide solution in PBS buffer. The leftover hydrogen peroxide was removed with PBS rinse. […] To visualize the immunostaining, the sections were incubated with a fresh DAB solution (Dako Inc. Cat# K3468) and monitored under a microscope. […]

[8] = biological target: T1, SRC–3; design: Cell lysate was prepared by adding RIPA buffer; endogenous in cells; host or cells: HCC1143, SUM149PT, SUM159PT, MDA-MB-231, MDA-MB-231-LM3-3; method as in PMID 22053001; conditions: cited from earlier work
[9] = test system: LM3-3 cells; test: Gefitinib and bufalin co-treatment, cell viability; type: cell-based
[10] = test system: HCC1143; test: Cell cytotoxicity assay (MTT), HCC1143; type: cell-based; conditions: Homo sapiens, HCC1143, 72 h
Procedure: (§1) TNBC cells (5000 to 7000 cells per well) were seeded in 96-well plates in medium supplemented with 10% FBS. […] Cell viabilities relative to untreated control cells were plotted using Graphpad Prism.

[11] = test system: SUM149PT; test: Cell cytotoxicity assay (MTT), SUM149PT; type: cell-based; conditions: 72 h
Procedure: as §1

[12] = test system: SUM159PT; test: Cell cytotoxicity assay (MTT), SUM159PT; type: cell-based; conditions: 72 h
Procedure: as §1

[13] = test system: MDA-MB–231; test: Cell cytotoxicity assay (MTT), MDA-MB-231; type: cell-based; conditions: MDA-MB-231, 72 h
Procedure: as §1

[14] = test system: MDA-MB-231-LM3-3; test: Cell cytotoxicity assay (MTT), MDA-MB-231-LM3-3; type: cell-based; conditions: MDA-MB-231-LM3-3, 72 h
Procedure: as §1

[15] = test system: mouse primary hepatocytes; test: Viability of primary hepatocytes; type: cell-based; conditions: concentrations of up to 10 μM
Procedure: The HCC1143 cell line was grown in RPMI–1640 medium, SUM149PT and SUM159PT cell lines were grown in F–12 medium, and MDA-MB–231 cells were grown in DMEM. All culture media were supplemented with 10% fetal bovine serum. All cell lines were grown in a humidified incubator containing 5% CO2 at 37°C. Primary hepatocytes were isolated from an adult male mouse (C57BL) by collagenase perfusion (0.8 mg/mL; Sigma–Aldrich, C5138) through the portal vein as described previously, and maintained in M199 medium with 10% FBS. The viability of freshly isolated hepatocytes was verified using Trypan blue staining.
as §1

[16] = test system: LM3-3 cells; test: Single cell motility assay; type: cell-based
Procedure: Microtiter 96-well plates pre-coated with collagen V were covered with beads provided by a Cell Motility HCS kit (Thermo Scientific Co. Cat# K0800011). 500 LM3-3 cells were seeded in each bead-coated well. […] The cell track areas (pixels) were counted using Image J. To attain statistical significance, more than 50 cell tracks in each sample were counted.

[17] = test system: cancer cells; conditions: selective toxicity towards cancer cells; cited from earlier work
[18] = 7.5 mg/kg i.p., + 10 min post-injection
[19] = 7.5 mg/kg i.p., - 5 min (before injection)
[20] = 11.25 mg/kg i.p., + 5 min post-injection
[21] = 11.25 mg/kg i.p., + 10 min post-injection
[22] = 11.25 mg/kg i.p., + 15 min post-injection
[23] = 11.25 mg/kg i.p., - 5 min (before injection)
[24] = female, ICR, mouse, plasma, ip, 0.5 mg/kg

T1 sequence (Q9Y6Q9 whole entry): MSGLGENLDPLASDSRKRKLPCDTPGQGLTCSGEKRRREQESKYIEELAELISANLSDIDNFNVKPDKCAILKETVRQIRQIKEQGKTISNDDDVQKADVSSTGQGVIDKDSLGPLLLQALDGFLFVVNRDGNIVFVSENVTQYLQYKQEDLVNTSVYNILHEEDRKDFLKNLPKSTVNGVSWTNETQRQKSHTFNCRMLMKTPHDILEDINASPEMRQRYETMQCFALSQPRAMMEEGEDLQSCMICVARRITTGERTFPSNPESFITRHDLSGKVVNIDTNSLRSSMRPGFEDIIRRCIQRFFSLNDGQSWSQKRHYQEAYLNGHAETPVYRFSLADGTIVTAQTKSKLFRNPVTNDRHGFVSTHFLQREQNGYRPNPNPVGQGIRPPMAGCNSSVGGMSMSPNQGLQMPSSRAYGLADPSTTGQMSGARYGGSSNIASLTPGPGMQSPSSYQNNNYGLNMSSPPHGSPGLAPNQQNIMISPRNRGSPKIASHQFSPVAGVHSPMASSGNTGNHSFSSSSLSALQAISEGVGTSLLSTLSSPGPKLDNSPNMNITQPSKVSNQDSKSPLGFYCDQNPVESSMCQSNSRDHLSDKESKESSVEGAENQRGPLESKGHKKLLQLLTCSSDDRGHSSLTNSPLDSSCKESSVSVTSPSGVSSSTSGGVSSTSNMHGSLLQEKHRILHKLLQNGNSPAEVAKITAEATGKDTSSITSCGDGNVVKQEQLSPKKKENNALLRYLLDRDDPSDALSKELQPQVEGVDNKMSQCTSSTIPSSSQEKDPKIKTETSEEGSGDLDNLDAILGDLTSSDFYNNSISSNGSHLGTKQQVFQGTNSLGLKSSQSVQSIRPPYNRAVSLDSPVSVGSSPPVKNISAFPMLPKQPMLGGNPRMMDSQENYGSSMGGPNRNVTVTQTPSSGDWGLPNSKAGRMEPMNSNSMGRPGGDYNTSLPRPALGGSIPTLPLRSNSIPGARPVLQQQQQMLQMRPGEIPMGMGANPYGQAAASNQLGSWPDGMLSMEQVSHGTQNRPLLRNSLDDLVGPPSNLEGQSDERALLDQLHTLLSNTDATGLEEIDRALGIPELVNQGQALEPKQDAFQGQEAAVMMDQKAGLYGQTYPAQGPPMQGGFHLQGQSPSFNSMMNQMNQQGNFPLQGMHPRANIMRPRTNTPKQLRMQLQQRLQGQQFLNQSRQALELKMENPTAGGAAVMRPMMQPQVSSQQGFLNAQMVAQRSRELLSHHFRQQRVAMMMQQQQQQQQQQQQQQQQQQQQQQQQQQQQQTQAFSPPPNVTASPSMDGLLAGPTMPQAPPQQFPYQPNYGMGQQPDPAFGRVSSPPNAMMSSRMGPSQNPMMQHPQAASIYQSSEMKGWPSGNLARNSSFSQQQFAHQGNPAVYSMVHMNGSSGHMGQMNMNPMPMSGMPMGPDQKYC

C[C@]12CC[C@H](OP(=O)(O)O)C[C@H]1CC[C@@H]1[C@@H]2CC[C@]2(C)[C@@H](c3ccc(=O)oc3)CC[C@]12O [3-phospho-bufalin, 3-Phospho-bufalin]
changes in EKG parameters ([1]; 7.5 mg/kg and 11.25 mg/kg i.p.): did not observe significant changes in EKG parameters
HR [1, 18]: 788.7 ± 1.2 BPM
QRS [1, 18]: 11.0 ± 0.1 ms
QT [1, 18]: 38.2 ± 0.9 ms
QTc [1, 18]: 43.8 ± 1.0 ms
RR [1, 18]: 76.1 ± 0.1 ms
ST [1, 18]: 27.6 ± 0.9 ms
HR [1, 19]: 754.7 ± 6.6 BPM
QRS [1, 19]: 10.6 ± 0.1 ms
QT [1, 19]: 40.2 ± 0.6 ms
QTc [1, 19]: 45.0 ± 0.5 ms
RR [1, 19]: 79.6 ± 0.7 ms
ST [1, 19]: 30.1 ± 0.7 ms
HR [1, 20]: 779.7 ± 1.5 BPM
QRS [1, 20]: 10.9 ± 0.1 ms
QT [1, 20]: 37.1 ± 0.3 ms
QTc [1, 20]: 42.3 ± 0.4 ms
RR [1, 20]: 77.0 ± 0.1 ms
ST [1, 20]: 26.7 ± 0.4 ms
HR [1, 21]: 761.3 ± 7.5 BPM
QRS [1, 21]: 11.1 ± 0.2 ms
QT [1, 21]: 38.1 ± 0.6 ms
QTc [1, 21]: 43.0 ± 0.6 ms
RR [1, 21]: 78.8 ± 0.8 ms
ST [1, 21]: 26.6 ± 0.5 ms
HR [1, 22]: 755.0 ± 1.0 BPM
QRS [1, 22]: 11.5 ± 0.1 ms
QT [1, 22]: 39.1 ± 0.9 ms
QTc [1, 22]: 43.9 ± 0.9 ms
RR [1, 22]: 79.5 ± 0.1 ms
ST [1, 22]: 28.1 ± 0.8 ms
HR [1, 23]: 798.0 ± 12.8 BPM
QRS [1, 23]: 10.6 ± 0.3 ms
QT [1, 23]: 39.1 ± 2.4 ms
QTc [1, 23]: 45.1 ± 2.9 ms
RR [1, 23]: 75.8 ± 0.2 ms
ST [1, 23]: 29.0 ± 2.2 ms
body weight versus control at the end of the experiment ([2]; 0.75 mg/kg 3 times per week): statistically the same body weight
tumor growth (tumor volume) ([2]; 0.75 mg/kg, 3 times per week for 3 weeks, subcutaneously): significantly inhibit TNBC tumor growth
tumor weight, PBS treated relative to treatment group ([2]; day 31, 0.75 mg/kg 3 times per week): ~ 2.4 times
Ki-67 positive cells in tumor tissue (IHC) [3]: dramatically fewer Ki–67 positive cells
potency to inhibit SRC-3 levels compared with bufalin ([4]; LM3-3 cells, Western blotting): less potent than bufalin
downregulation of SRC-3 in LM3-3 cells (Western blotting) ([4]; dose response): can also inhibit SRC–3 expression levels
damage to cardiomyocytes (histology) [5]: little damage to cardiomyocytes
AUC(0-inf) [6, 24]: 0.046 ± 0.018 µM·h
AUC(0-t) [6, 24]: 0.031 ± 0.018 µM·h
Tmax [6, 24]: 15 min
half-life [6, 24]: 44.5 ± 6.24 min
conversion to parent bufalin in vivo ([6]; free bufalin detected in plasma): can be converted to parent bufalin in vivo
SRC-3 level in tumor tissue (IHC staining) versus PBS [7]: significantly lower
SRC-3 protein levels in tumor tissues (Western blotting) versus PBS [7]: significantly lower

Cc1cc2c(C(C)C)c(O)c(O)c(C=O)c2c(O)c1-c1c(C)cc2c(C(C)C)c(O)c(O)c(C=O)c2c1O [gossypol]
IC50 values [8]: micromolar

COc1cc2ncnc(Nc3ccc(F)c(Cl)c3)c2cc1OCCCN1CCOCC1 [gefitinib]
toxicity in LM3-3 cells, gefitinib alone ([9]; concentrations up to 20 μM): minimal toxicity

C[C@]12CC[C@H](O)C[C@H]1CC[C@@H]1[C@@H]2CC[C@]2(C)[C@@H](c3ccc(=O)oc3)CC[C@]12O [bufalin]
IC50 [10]: 71.8 nM
IC50 [11]: < 20 nM
IC50 ([11]; Homo sapiens): 16.6 nM
IC50 [12]: < 20 nM
IC50 ([12]; Homo sapiens, SUM-159-PT): 15.9 nM
IC50 ([13]; Homo sapiens): 20 nM
IC50 [13]: < 20 nM
IC50 ([14]; 72 h): 16.6 nM
IC50 [14]: < 20 nM
toxicity in mouse primary hepatocytes [15]: did not cause any observable toxicity
toxicity toward LM3-3 cells under motility assay conditions ([16]; 12 h): minimal toxicity
motility of LM3-3 cells ([16]; increasing concentrations): decreased with increasing concentrations
combination effect with gefitinib on LM3-3 cell viability ([9]; 5 or 10 nM bufalin with gefitinib): synergize with gefitinib
IC50 values [17]: low nM range
damage to cardiomyocytes (histology) [5]: little damage to cardiomyocytes
time post injection at which bufalin became undetectable ([6]; released bufalin after p-Buf 0.5 mg/kg i.p.): 1 h
